Tested on: participants with SSc-RP
Assay: Frequency of weekly RP attacks (all attacks; primary efficacy endpoint)
Format: in vivo, human
Source text: Percent change from baseline evaluation for frequency of weekly RP attacks were or will be used as the primary efficacy variable. The sponsor-developed participant-informed diary will be used to record data. Frequency of weekly RP attacks is defined as the total number of RP attacks divided by the number of days with available diary data within the last 7 days of each dosing period then multiplied by 7. Total number of RP attacks during the last 7 days of screening period divided by the number of days with available data then multiplied by 7 will be used as baseline for the analysis of all periods. The variable will be calculated as follows:
Percentage change={(weekly RP attacks for the last 7 days of each dosing period−Baseline weekly RP attacks)/Baseline weekly RP attacks}*100%.
Absolute change=weekly RP attacks for the last 7 days of each dosing period−Baseline weekly RP attacks
Percent change from baseline evaluation for frequency of weekly RP attacks was and will be the primary efficacy endpoint. Frequency of weekly RP attacks is defined as the total number of RP attacks divided by the number of days with available diary data within the last 7 days of each dosing period then multiplied by 7. Total number of RP attacks during the last 7 days of screening period divided by the number of days with available data then multiplied by 7 will be used as baseline for the analysis of all periods.
Percent change from baseline evaluation for frequency of weekly RP attacks were the primary efficacy endpoint. Data collected in the last 7 days of each dosing period were used for this analysis. Screening assessments were used as baseline for the analysis of all periods. No multiple comparison adjustment were used to control alpha for the multiple comparisons. Mixed effects model were used for analysis of the primary endpoint according to the crossover design. Other efficacy endpoints of continuous variables were analyzed using similar methodology. For nominal data, chi-square tests were applied. Generalized Estimating Equations method were used, as appropriate, for adjusting for potential confounding factors. In addition, the final analysis assessed whether in this study of severe Raynaud's disease participants, the minimally important difference, previously concluded of 14-15 points on the 100 point RCS scale had been achieved in the cilnidipine dose group. It also recorded the percentage of participants achieving a PASS (34 point difference from baseline on a 0-100 VAS) in each treatment group.

[1] = Tadalafil 5 mg, n=1, Excluding Outliers, by Baseline RCS, second subgroup, ITT Part A
[2] = all attacks, excluding outliers, cilnidipine 10 mg, tadalafil 5 mg daily
[3] = all attacks, by baseline RCS, second subgroup, cilnidipine 10 mg, tadalafil 5 mg daily
[4] = all attacks, cilnidipine 10 mg, tadalafil 5 mg daily

CN1CC(=O)N2[C@H](c3ccc4c(c3)OCO4)c3[nH]c4ccccc4c3C[C@@H]2C1=O [Tadalafil, tadalafil]
Weekly RP Attacks (All Attacks) Change from Baseline, Mean [1]: 6.00
Weekly RP Attacks (All Attacks) Change from Baseline, Median [1]: 6.00
Weekly RP Attacks (All Attacks) Percent Change from Baseline, Mean [1]: 46.15%
Weekly RP Attacks (All Attacks) Percent Change from Baseline, Median [1]: 46.15%
Weekly RP Attacks (All Attacks), Mean [1]: 19.00
Weekly RP Attacks (All Attacks), Median [1]: 19.00
Weekly RP Attacks Change from Baseline, Max [2]: 6.0, 6.0
Weekly RP Attacks Change from Baseline, Mean (SD) [2]: 6.00
Weekly RP Attacks Change from Baseline, Median [2]: 6.00
Weekly RP Attacks Change from Baseline, Min [2]: 6.0, 6.0
Weekly RP Attacks Change from Baseline, Q1 [2]: 6.00, 6.00
Weekly RP Attacks Change from Baseline, Q3 [2]: 6.00, 6.00
Weekly RP Attacks Percent Change from Baseline, Max [2]: 46.2, 46.2%
Weekly RP Attacks Percent Change from Baseline, Mean (SD) [2]: 46.15%
Weekly RP Attacks Percent Change from Baseline, Median [2]: 46.15%
Weekly RP Attacks Percent Change from Baseline, Min [2]: 46.2, 46.2%
Weekly RP Attacks Percent Change from Baseline, Q1 [2]: 46.15, 46.15%
Weekly RP Attacks Percent Change from Baseline, Q3 [2]: 46.15, 46.15%
Weekly RP Attacks, Max [2]: 19.0, 19.0
Weekly RP Attacks, Mean (SD) [2]: 19.00
Weekly RP Attacks, Median [2]: 19.00
Weekly RP Attacks, Min [2]: 19.0, 19.0
Weekly RP Attacks, Q1 [2]: 19.00, 19.00
Weekly RP Attacks, Q3 [2]: 19.00, 19.00
Weekly RP Attacks Change from Baseline, Max [3]: 6.0
Weekly RP Attacks Change from Baseline, Mean [3]: 3.00
Weekly RP Attacks Change from Baseline, Median [3]: 3.00
Weekly RP Attacks Change from Baseline, Min [3]: 0.0
Weekly RP Attacks Change from Baseline, Q1 [3]: 0.00
Weekly RP Attacks Change from Baseline, Q3 [3]: 6.00
Weekly RP Attacks Percent Change from Baseline, Max [3]: 46.2%
Weekly RP Attacks Percent Change from Baseline, Mean [3]: 23.08%
Weekly RP Attacks Percent Change from Baseline, Median [3]: 23.08%
Weekly RP Attacks Percent Change from Baseline, Min [3]: 0.0%
Weekly RP Attacks Percent Change from Baseline, Q1 [3]: 0.00%
Weekly RP Attacks Percent Change from Baseline, Q3 [3]: 46.15%
Weekly RP Attacks, Max [3]: 19.0
Weekly RP Attacks, Mean [3]: 13.00
Weekly RP Attacks, Median [3]: 13.00
Weekly RP Attacks, Min [3]: 7.0
Weekly RP Attacks, Q1 [3]: 7.00
Weekly RP Attacks, Q3 [3]: 19.00
Weekly RP Attacks Change from Baseline, Max [4]: 6.0
Weekly RP Attacks Change from Baseline, Mean (SD) [4]: 3.00 (4.243)
Weekly RP Attacks Change from Baseline, Median [4]: 3.00
Weekly RP Attacks Change from Baseline, Min [4]: 0.0
Weekly RP Attacks Change from Baseline, Q1 [4]: 0.00
Weekly RP Attacks Change from Baseline, Q3 [4]: 6.00
Weekly RP Attacks Percent Change from Baseline, Max [4]: 46.2%
Weekly RP Attacks Percent Change from Baseline, Mean (SD) [4]: 23.08 (32.636) Percent
Weekly RP Attacks Percent Change from Baseline, Median [4]: 23.08%
Weekly RP Attacks Percent Change from Baseline, Min [4]: 0.0%
Weekly RP Attacks Percent Change from Baseline, Q1 [4]: 0.00%
Weekly RP Attacks Percent Change from Baseline, Q3 [4]: 46.15%
Weekly RP Attacks, Max [4]: 19.0
Weekly RP Attacks, Mean (SD) [4]: 13.00 (8.485)
Weekly RP Attacks, Median [4]: 13.00
Weekly RP Attacks, Min [4]: 7.0
Weekly RP Attacks, Q1 [4]: 7.00
Weekly RP Attacks, Q3 [4]: 19.00

Source: patent US20240358693A1, “METHODS OF TREATING PAIN” (Aisa Pharma, Inc., priority 2023, published 2024)
